Measurements as given in patent publication US10494610B2, “Three dimensional matrix for cancer stem cells” (UNIVERSITY OF SOUTH CAROLINA, priority 2013, dated 2019).
“Also recorded” adds a separate entry of the source. No end group written: not given here.

How the values were obtained:
[1] = system: 4T1 mouse breast carcinoma cells; assay: Tumorsphere formation, size and cell number of cells encapsulated in the gel; format: cell-based; conditions: 9 days; for tumorsphere formation: 4T1 in 5 kPa PEGDA gel with peptide conjugated (conj) or dissolved (dis); for cell number density compared with the gel without peptide: 4T1 in PEGDA gel with peptide conjugated (conj) or dissolved (dis)
Experimental: 4T1 and MCF7 tumor cells were cultured in RMPI-1640 medium with 10% FBS under 5% CO2 at 37° C. Cells were trypsinized after reaching 70% confluency. PEGDA macromer was dissolved in PBS and sterilized by filtration with a 0.2 μm filter. Next, 1.4×10^5/mL 4T1 or MCF7 cells suspended in PBS were added to the macromer solution with final PEGDA concentrations ranging 5-25 wt % and mixed gently with a pre-sterilized glass rod. The cell-suspended hydrogel precursor solution was crosslinked with UV for 10 min. After crosslinking, the gel was cut into disks and incubated in stem cell culture medium in ultra-low attachment tissue culture plates under 5% CO2. The stem cell medium consisted of DMEM-F12 supplemented with 0.4% bovine serum albumin (BSA), 5 μg/mL insulin, 40 ng/mL basic fibroblast growth factor (bFGF), 20 ng/mL EGF, 5% horse serum, 100 U/mL penicillin, and 100 μg/mL streptomycin.
To determine cell viability, gels were stained with cAM/EthD live/dead dyes 2 days after encapsulation to image live and dead cells, respectively. Stained samples were imaged with an inverted fluorescent microscope (Nikon Eclipse Ti-ε, Nikon, Melville, N.Y.). Cell viability was quantified by dividing the image into smaller squares and counting the number of live and dead cells. At each time point, the gel samples were removed from the culture media and stained for imaging. Samples were rinsed twice with PBS and fixed with 4% paraformaldehyde for 3 h. After fixation, cells were permeabilized using PBS containing 0.1% Triton X-100 for 5 min. After rinsing, cells were incubated with Alexa 488 phalloidin (1:200 dilution) and DAPI (1:5000 dilution) to stain actin filaments of the cell cytoskeleton and cell nuclei, respectively. Stained samples were imaged with a Nikon Eclipse Ti-ε inverted fluorescent microscope. For visualization of cell uniformity, a confocal fluorescent microscope (Zeiss LSM-510 META Axiovert, Carl Zeiss, Germany) was used to obtain 2D images (90 μm thick layers) of the stained gels in the direction of thickness. For determination of cell number, the gel samples were homogenized, cells were lysed, and aliquots were used to measure the double stranded DNA (dsDNA) content using a Quant-it PicoGreen assay. Briefly, an aliquot (100 μL) of the working solution was added to 100 μL of the cell lysate and incubated for 4 min at ambient conditions. The fluorescence of the solution was measured with a plate reader (Synergy HT, Bio-Tek, Winooski, Vt.) at emission and excitation wavelength of […], respectively. Measured fluorescent intensities were correlated to cell numbers using a calibration curve constructed with 4T1 or MCF7 cells of known concentration ranging from zero to […].
The tumor cells were cultured in RMPI-1640 medium with 10% FBS under 5% CO2 at 37° C. Cells were trypsinized after reaching 70% confluency. The synthesized acrylamide-terminated peptides were added to the PEGDA macromer solution and the mixture was sterilized by filtration (220 nm filter). Next, 1.4×10^5/ml cells (4T1, MCF7, or MCF10a) were added to the macromer solution and mixed gently with a pre-sterilized glass rod. The cell-suspended hydrogel precursor solution was crosslinked with UV for 10 min as described above. After cross-linking, the gel was cut into disks and incubated in stem cell culture medium on ultra-low attachment tissue culture plates under 5% CO2. The stem cell medium consisted of DMEM-F12 supplemented with 0.4% BSA, 5 μg/ml insulin, 40 ng/ml bFGF, 20 ng/ml EGF, 5% horse serum, 100 U/ml penicillin, and 100 μg/ml streptomycin. For growing tumorspheres in suspension, trypsinized cells (4T1 or MCF7) were cultured on ultra-low attachment tissue culture plates with stem cell culture medium under 5% CO2 at 37° C.
To determine cell viability, gels were stained with cAM and EthD dyes after cell encapsulation to image live and dead cells, respectively. […]

4T1 cells [2] = assay: RT-qPCR mRNA expression of CSC related markers in encapsulated cells; format: cell-based, mouse; conditions: for CD44 mRNA marker expression / ABCG2 mRNA marker expression / CD24 mRNA marker expression / SCA1 mRNA marker expression: 4T1 in PEGDA gel with peptide; for EGFR mRNA marker expression: 4T1 in peptide-conjugated gels
Experimental: Total cellular RNA of the gel samples was isolated using TRIzol (Invitrogen). 250 ng of the extracted purified RNA was reverse transcribed to cDNA by SuperScript II Reverse Transcriptase (Invitrogen) with the random primers. The obtained cDNA was subjected to real time quantitative polymerase chain reaction (RT-qPCR) amplification with appropriate gene specific primers. RT-qPCR was performed to analyze the differential expression of CSC markers CD44 (4T1 and MCF7), CD24 (4T1), ABCG2 (4T1 and MCF7), and SCA1 (4T1) genes with SYBR green RealMasterMix (Eppendorf, Hamburg, Germany) using Bio-Rad iCycler PCR system (Bio-Rad, Hercules, Calif.). The expression level of GAPDH gene was used as an internal control. The primers for real time PCR were designed by Primer 3 software. The following forward and reverse primers synthesized by Integrated DNA technologies (Coralville, Iowa) were used: mouse GAPDH: forward 5′-CATGGCCTTCCGTGTTCCTA-3′ (SEQ ID NO: 1) and reverse 5′-CCTGCTTCACCACCTTCTTGA-3′ (SEQ ID NO: 2); mouse CD44: forward 5′-GAATGTAACCTGCCGCTACG-3′ (SEQ ID NO: 3) and reverse 5′-GGA GGT GTT GGA CGT GAC-3′ (SEQ ID NO: 4); mouse CD24: forward 5′-CTTCTGGCACTGCTCCTACC-3′ (SEQ ID NO: 5) and reverse 5′-GAGAGAGAGCCAGGAGACCA-3′ (SEQ ID NO: 6); mouse ABCG2: forward 5′-AGCAGCAAGGAAAGATCCAA-3′ (SEQ ID NO: 7) and reverse 5′-GGAATACCGAGGCTGATGAA-3′ (SEQ ID NO: 8); mouse SCA1: forward 5′-TGG ACA CTT CTC ACA CTA-3′ (SEQ ID NO: 9) and reverse 5′-CAGAGCAAGAGGGTCTGCAGGAG-3′ (SEQ ID NO: 10); human GAPDH forward 5′-GAGTCAACGGATTTGGTCGT-3′ (SEQ ID NO: 11) and reverse 5′-TTGATTTTGGAGGGATCTCG-3′ (SEQ ID NO: 12); human CD44 forward 5′-GGCTTTCAATAGCACCTTGC-3′ (SEQ ID NO: 13) and reverse 5′-ACACCCCTGTGTTGTTTGCT-3′ (SEQ ID NO: 14); human ABCG2 forward 5′-CACCTTATTGGCCTCAGGAA-3′ (SEQ ID NO: 15) and reverse 5′-CCTGCTTGGAAGGCTCTATG-3′ (SEQ ID NO: 16). The relative gene expression levels were quantified by the 2^-ddCT method as described. The relative gene expressions were expressed as fold difference compared with that at time zero.
Total cellular RNA of the gel samples was isolated using TRIzol (Invitrogen). 250 ng of the extracted purified RNA was reverse transcribed to cDNA by SuperScript II Reverse Transcriptase (Invitrogen) with the random primers. The obtained cDNA was subjected to real time quantitative polymerase chain reaction (RT-qPCR) amplification with the appropriate gene specific primers. RT-qPCR was performed to analyze the differential expression of CSC markers CD44, CD24, ABCG2, and SCA1 genes with SYBR green RealMasterMix (Eppendorf, Hamburg, Germany) using Bio-Rad iCycler PCR system (Bio-Rad, Hercules, Calif.). The expression level of GAPDH gene was used as an internal control. The primers for real time PCR were designed by Primer 3 software. The forward and reverse primer sequences, listed in the table below, were synthesized by Integrated DNA technologies (Coralville, Iowa). The relative gene expression levels were quantified by the 2^(−ΔΔCT) method. Briefly, ΔCT was calculated as ΔCT=CT^target gene−CT^GAPDH. ΔΔCT of the target gene was calculated as ΔΔCT=ΔCT^experimental group−ΔCT^reference group. The reference was the first time point (right after cells were encapsulated in the gel). The relative gene expression (fold-change compared to the reference time point) was calculated as 2^(−ΔΔCT).

4T1 cells [3] = assay: Flow cytometry of CD44+/CD24- cells isolated from the gel; format: cell-based, mouse; conditions: 4T1, 9 days after encapsulation in 5 kPa gel with or without conjugated peptide (about 6% without gel)
Experimental: Cells encapsulated in the gel were fixed with 4% paraformaldehyde for 30 min followed by washing with PBS. Next, the gel was incubated in oxidative degradation solution (0.1M CoCl in 20% hydrogen peroxide). After the gel was degraded, cells were washed three times with cold PBS containing 5% BSA. MCF7 cells were incubated with phycoerythrin (PE) mouse anti-human CD24 and fluorescein isothiocyanate (FITC) mouse anti-human CD44 (BD Biosciences, Franklin Lakes, N.J.), and 4T1 cells were incubated with PE-anti-mouse CD24 and FITC-anti-mouse CD44 (eBioscience, San Diego, Calif.) in 100 μl PBS with 5% BSA for 45 min on ice in the dark. Cells were then washed with cold PBS with 5% BSA three times and analyzed by a flow cytometer (FC500, Beckman Coulter, Brea, Calif.). Flow cytometry was done multiple times on each sample to ascertain reproducibility of the results.

4T1 cells [4] = assay: Tumor growth in vivo of cell encapsulated gels implanted subcutaneously; set-up: species or system syngeneic Balb/C mice; conditions: 4T1 cells in dPEGDA gel, subcutaneous, 4 weeks after inoculation
Experimental: To test tumor formation ability of 4T1 cells in the hydrogel, the cell encapsulated gels were cultured in vitro in the stem cell medium for 9 days as described above. After tumorsphere formation, gel pieces containing 1×10^5 tumorsphere cells were implanted subcutaneously in syngeneic Balb/C mice (6 mice/group). Groups included 4T1 tumorsphere cells, grown on ultra-low attachment plates, and injected subcutaneously (control group), degradable version of the PEGDA gel (dPEGDA) without tumor cells (control group), 4T1 cells encapsulated in the dPEGDA and cultured in vitro for 9 days prior to implantation, and 4T1 cells encapsulated in CD44BP-conjugated dPEGDA gel and cultured in vitro for 9 days prior to implantation. When tumors became measurable, tumor size and growth rate were measured and calculated. Mice were euthanized when tumor volume reached above 1000 mm^3 or 4 weeks after inoculation.

[5] = 4T1 in peptide-conjugated gel, 9 days
[6] = 4T1 in peptide-conjugated gel, 3 days

For GRGDS [IBP], the tumorsphere formation [1] was “completely abolished”, the “cell number density compared with the gel without peptide” value [1] was “reduced cell number” and the “CD44 mRNA marker expression” value (4T1 cells [2]; 9 days) was “decreased”. For the same substance, the “expression of integrin αV” value (4T1 cells [2]; 4T1 in peptide-conjugated gel) was “significantly increased”, the “expression of integrin β3” value (4T1 cells [2]; 4T1 in peptide-conjugated gel) was “significantly increased” and the “expression of E-Cadherin” value (4T1 cells [2]; [5]) was “low expressions”. The “EGFR mRNA marker expression” value (4T1 cells [2]; 9 days) was “decreased” and the “percentage of CD44+/CD24− cells” value (4T1 cells [3]) was 5.4%.

For “RLVSYNGIIFFLK [conj CD44BP] (RLVSYNGIIFFLK-NH2; also: conjugated to PEGDA gel, site not given here)”, the tumorsphere formation [1] was “completely abolished sphere formation”, the tumorsphere formation ([1]; listed as CD44BP) was “inhibits tumorsphere formation; also recorded: completely abolished” and the “cell number density compared with the gel without peptide” value [1] was “strongest effect on cell density”. For the same substance, the “cell number density compared with the gel without peptide” value ([1]; listed as CD44BP) was “reduced cell number”, the “ABCG2 mRNA marker expression” value (4T1 cells [2]; 9 days) was “decreased expressions” and the “CD24 mRNA marker expression” value (4T1 cells [2]; 9 days) was “increased expression”. For the same substance, the “CD44 mRNA marker expression” value (4T1 cells [2]; 9 days) was “decreased expressions”, the “SCA1 mRNA marker expression” value (4T1 cells [2]; 9 days) was “decreased expressions” and the “CD44 mRNA marker expression” value (4T1 cells [2]; 9 days, listed as CD44BP) was “decreased”. For the same substance, the “expression of integrin αV” value (4T1 cells [2]; 4T1 in peptide-conjugated gel) was “reduced”, the “expression of integrin β3” value (4T1 cells [2]; 4T1 in peptide-conjugated gel) was “reduced” and the “expression of E-Cadherin” value (4T1 cells [2]; [5]) was “low expressions”. For the same substance, the “EGFR mRNA marker expression” value (4T1 cells [2]; 9 days) was “decreased”, the “percentage of CD44+/CD24− cells” value (4T1 cells [3]) was 6.5% and the “tumor formation in vivo” value (4T1 cells [4]) was “did not form a visible tumor”. The “tumor formation in vivo” value (4T1 cells [4]; listed as CD44BP) was “Tumor growth was not observed”.

“RLVSYNGIIFFLK [dis CD44BP, CD44BP dissolved in the gel and in the culture medium]” was tested, and the tumorsphere formation [1] was “did not inhibit sphere formation”, the “cell number density compared with the gel without peptide” value [1] was “lower” and the “ABCG2 mRNA marker expression” value (4T1 cells [2]; 9 days) was “high expressions”. For the same substance, the “CD24 mRNA marker expression” value (4T1 cells [2]; 9 days) was “low expression”, the “CD44 mRNA marker expression” value (4T1 cells [2]; 9 days) was “high expressions” and the “SCA1 mRNA marker expression” value (4T1 cells [2]; 9 days) was “high expressions”.

“VLFGFLKIYSRIN [conj s-CD44BP, reference compound]” was tested, and the tumorsphere formation [1] was “no significant effect”, the “cell number density compared with the gel without peptide” value [1] was “lower” and the “ABCG2 mRNA marker expression” value (4T1 cells [2]; 9 days) was “high expressions”. The “CD24 mRNA marker expression” value (4T1 cells [2]; 9 days) was “low expression”, the “CD44 mRNA marker expression” value (4T1 cells [2]; 9 days) was “high expressions” and the “SCA1 mRNA marker expression” value (4T1 cells [2]; 9 days) was “high expressions”.

WQPPRARI [FHBP] was tested, and the tumorsphere formation [1] was “increased; also recorded: enhanced”, the “cell number density compared with the gel without peptide” value [1] was “higher cell number” and the “size of cell aggregates / spheres” value ([1]; 4T1 in peptide-conjugated gels) was “larger spheres”. The “CD44 mRNA marker expression” value (4T1 cells [2]; 9 days) was “significantly higher”, the “expression of integrin αV” value (4T1 cells [2]; 4T1 in peptide-conjugated gel) was “reduced” and the “expression of integrin β3” value (4T1 cells [2]; 4T1 in peptide-conjugated gel) was “reduced”. For the same substance, the “expression of E-Cadherin” value (4T1 cells [2]; [6]) was “decreased”, the “expression of N-Cadherin” value (4T1 cells [2]; [6]) was “increased” and the “expression of E-Cadherin” value (4T1 cells [2]; [5]) was “much higher than that in other groups”. For the same substance, the “EGFR mRNA marker expression” value (4T1 cells [2]; 9 days) was “increased” and the “percentage of CD44+/CD24− cells” value (4T1 cells [3]) was “about 21%”.
